Results published in PMC6896172, “Successful Targeting of the Warburg Effect in Prostate Cancer by Glucose-Conjugated 1,4-Naphthoquinones” (Cancers, 2019).
Read-outs that look alike come from different tables or passages of the source.

Experiments:
[1] = system: VCaP cells; assay: MTT cytotoxicity assay in VCaP cells; format: cell-based; conditions: Homo sapiens, 48 h of treatment, cancer
Experimental: (§1) Dr. Dr. med. Sonja Loges (University Medical Center Hamburg-Eppendorf, Hamburg, Germany). Cells were cultured according to the manufacturers’ instructions and were recently authenticated by a commercial service (Multiplexion, Heidelberg, Germany). Culture conditions are described in the Supplementary Information.
(§2) MTT (3-(4,5-dimethylthiazol-2-yl)-2,5-diphenyltetrazolium bromide) cytotoxicity assay was used for the evaluation of cytotoxicity of the compounds or their combinations. Experiments were performed as previously described. In brief, 6000 cells/well were seeded in 96-well plate, incubated overnight, and treated with the drugs in 100 µL/well of 10% FBS/RPMI media containing 2 g/L of D-(+)-glucose for 48 h, unless otherwise stated. For 2 h treatment the cells were treated with the drugs for 2 h in the culture media, then the media was exchanged to fresh drug-free media (100 µL/well) containing MTT reagent and the further steps were performed as previously described.

[2] = system: 22Rv1 cells; assay: MTT cytotoxicity assay in 22Rv1 cells; format: cell-based, human; conditions: for IC50: Homo sapiens
Experimental: as §1, §2

[3] = system: HUVEC cells; assay: MTT cytotoxicity assay in HUVEC cells; format: cell-based; conditions: Homo sapiens, 48 h of treatment, non-cancer
Experimental: as §1, §2

[4] = system: RWPE-1 cells; assay: MTT cytotoxicity assay in RWPE-1 cells; format: cell-based; conditions: Homo sapiens, 48 h of treatment, non-cancer
Experimental: as §1, §2

## CC1(C)OC2OC(C(O)COC3=CC(=O)c4cccc(O)c4C3=O)C(O)C2O1 (stereo not drawn) [Compound 11]
[1]
  IC50: 3.11 µM
[2]; 22Rv1 cells, 1 mM NaC 1 h then co-treatment 48 h, FBS- and glucose-free RPMI
  effect of N-acetyl-L-cysteine pre-treatment on cytotoxic activity: significantly suppressed the cytotoxic activity
[2]; 22Rv1, 48 h of treatment, cancer, read-out: IC50 (22Rv1)
  IC50: 0.71 µM
[2]; 22Rv1 cells, 2 h treatment, read-out: IC50 after 2 h of treatment
  IC50: 20.4 µM
[3]
  IC50: 4.31 µM
[4]
  IC50: 1.48 µM
